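Tested at 5 concentrations; 48 h exposure; 96-well plates; endpoints linearly interpolated, else capped at highest concentration. Here, GI50 denotes the concentration required for 50% inhibition of growth. TGI: concentration producing complete growth inhibition.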
How the values were obtained:
Assay in all cases: inhibition of tumour cell growth, NCI panel, 48 h
[1] = tested on: 786-0 renal
[2] = tested on: A549 NSCLC
[3] = tested on: CCRF-CEM leukemia
[4] = tested on: SNB-19 CNS
[5] = tested on: KM12 colon
[6] = tested on: HT29 colon
[7] = tested on: U251 CNS
[8] = tested on: MALME-3M melanoma
[9] = tested on: HCT-116 colon
[10] = tested on: NCI-H226 lung
[11] = tested on: OVCAR-4 ovarian
[12] = tested on: SR leukemia
[13] = tested on: OVCAR-3 ovarian
[14] = tested on: COLO 205 colon
[15] = tested on: HS 578T breast
[16] = tested on: MDA-MB-435

SMILES | TGI [1] [µM] | TGI [2] [µM] | TGI [3] [µM] | TGI [4] [µM] | TGI [5] [µM] | TGI [6] [µM] | TGI [7] [µM] | TGI [8] [µM] | TGI [9] [µM] | TGI [10] [µM] | TGI [11] [µM] | TGI [12] [µM] | TGI [13] [µM] | TGI [14] [µM] | TGI [15] [µM] | TGI [16] [µM] | GI50 [9] [µM] | GI50 [13] [µM]
COc1cc(-c2cccs2)sc1-c1cccs1 | > 100 | > 100 | > 100 | > 100 | > 100 | 53.3 | > 100 | > 100 | > 100 | > 100 | > 100 | 61.8 | > 100 | 27.3 | – | – | – | –
COc1ccccc1CC(=O)C(O)(C(F)(F)F)C(F)(F)F | > 100 | > 100 | > 100 | > 100 | > 100 | > 100 | > 100 | > 100 | > 100 | > 100 | > 100 | > 100 | > 100 | > 100 | > 100 | > 100 | – | –
COC(=O)c1cccc(C)c1C1CN=NC12Cc1cc(C)cc(C)c1C2=O (stereo not drawn) | > 100 | > 100 | > 100 | > 100 | > 100 | 86.7 | > 100 | > 100 | 66.5 | > 100 | > 100 | > 100 | > 100 | – | > 100 | 66.1 | – | –
COc1cc2c(cc1O)[C@H](C)C(c1ccc(OC)c(OC)c1)O2 (stereo partly drawn) | 23.8 | > 100 | 25.6 | 65.3 | > 100 | 34.5 | 37.8 | 22.8 | 15.1 | 64.6 | 26.2 | – | 16.6 | 49.2 | – | – | – | –
Cc1ccc(C(=O)OC(C(=O)O)C(OC(=O)c2ccc(C)cc2)C(=O)O)cc1 (stereo not drawn) (tested in a mixture with another compound) | – | 22.3 | 17 | 25.6 | 19 | 10.2 | 22.2 | 12 | 13.8 | 24.8 | 21.6 | – | 22.4 | 10.5 | – | – | – | –
COc1cc(OCCN(C)C)c2[nH]c(C(=O)N3CC(CCl)c4ccc(N)cc43)cc2c1 (stereo not drawn) | 1.47 | > 34.3 | 0.0684 | 2.59 | 0.126 | 0.262 | 3.32 | – | 1.64 | 2.58 | 1.32 | > 100 | 0.607 | 0.17 | – | 0.281 | – | –
COc1ccc(C2Oc3cc(OC)c(OC)cc3C2CCl)cc1OC (stereo not drawn) | > 100 | > 100 | > 100 | > 100 | > 100 | – | > 100 | > 100 | > 100 | > 100 | > 100 | > 100 | > 100 | > 100 | – | – | – | –
O=c1[nH]c2cc(Cl)ccc2nc1/C(=N\Nc1ccccc1)C(O)c1ccc(Cl)c(Cl)c1 (stereo not drawn) | > 100 | > 100 | > 100 | > 100 | > 100 | > 100 | > 100 | > 100 | > 100 | > 100 | > 100 | > 100 | > 100 | > 100 | – | – | – | –
Nc1nc(Cl)cc(OCC2(CO)CC=CC2)n1 | > 100 | > 100 | > 100 | > 100 | – | > 100 | > 100 | > 100 | > 100 | > 100 | > 100 | > 100 | > 100 | – | > 100 | > 100 | – | –
CCOC(=O)c1csc(NC(=O)CN2CCCC2)n1 | – | > 100 | > 100 | > 100 | > 100 | > 100 | > 100 | – | – | > 100 | > 100 | > 100 | > 100 | > 100 | > 100 | > 100 | – | –
O=C1c2cc3c(cc2CC12Cc1ccc4c(c1C2=O)CCC4)CCCC3 (stereo not drawn) | > 100 | > 100 | > 100 | > 100 | – | > 100 | > 100 | > 100 | > 100 | – | > 100 | > 100 | > 100 | – | > 100 | > 100 | – | –
Cc1[nH]c(=O)nc2sc(=NC3CCCCC3)n(C3CCCCC3)c(=O)c12 | > 100 | > 100 | > 100 | > 100 | > 100 | > 100 | > 100 | > 100 | > 100 | > 100 | > 100 | – | > 100 | > 100 | – | > 100 | – | –
N#Cc1nc(-c2cnccn2)oc1N | > 100 | > 100 | > 100 | > 100 | > 100 | > 100 | > 100 | – | > 100 | – | – | > 100 | – | – | > 100 | > 100 | – | –
CCn1cnc2c(=S)nc(N)[nH]c21 | > 100 | > 100 | > 100 | > 100 | > 100 | > 100 | > 100 | > 100 | > 100 | > 100 | – | > 100 | > 100 | > 100 | – | – | – | –
CCNC(=O)c1ccc(C)c(N=NN(C)C)c1 | > 100 | > 100 | – | > 100 | > 100 | > 100 | > 100 | – | > 100 | – | > 100 | – | > 100 | – | – | – | – | –
CCCC/C=C/C=C/C=C/CCCCCCCC(=O)OCC(COC(=O)CCCCCCC/C=C/C1C=CC(CCCC)C(C(=O)O)C1C(=O)O)OC(=O)CCCCCCC/C=C/C=C/C=C/CCCC (stereo not drawn) (tested in a mixture with another compound) | 31.7 | 37.1 | 34.2 | 46.1 | 34.6 | 35.3 | – | 35.8 | 30.7 | 35.8 | 34.7 | – | 38.3 | 29.3 | – | – | – | –
COCCOCOC(CCCCO)c1cc(C)c(O[Si](C)(C)C(C)(C)C)c(C)c1 (stereo not drawn) | 24.4 | 16.1 | 18.1 | 19.2 | 18.6 | – | 23.6 | 13.3 | – | 10.3 | – | – | 19.2 | 22.3 | – | – | – | –
CC1(C)[C@@H](Cn2cc(I)c(=O)[nH]c2=O)CC[C@@]1(C)CO | > 100 | > 100 | > 100 | > 100 | > 100 | – | > 100 | – | > 100 | > 100 | > 100 | – | > 100 | > 100 | > 100 | > 100 | – | –
O=C(Nc1c(O)[nH]c(=S)[nH]c1=O)c1ccccc1 | > 100 | > 100 | > 100 | > 100 | > 100 | > 100 | > 100 | > 100 | > 100 | > 100 | > 100 | > 100 | > 100 | > 100 | – | – | – | –
O=c1cc(-c2ccc3c(c2)OCO3)[nH]c2cc3c(cc12)OCO3 | > 100 | > 100 | > 100 | > 100 | > 100 | > 100 | 99 | 97.8 | > 100 | > 100 | > 100 | 52.1 | 43.2 | > 100 | – | – | 38 | 19.5
COc1cc(C2C(Cl)C(=O)N2n2cnc3ccccc3c2=O)ccc1O (stereo not drawn) | > 100 | > 100 | > 100 | > 100 | > 100 | > 100 | > 100 | > 100 | > 100 | > 100 | > 100 | > 100 | > 100 | > 100 | – | – | – | –
CC1NC(=O)C(C)C(c2ccccc2)N(N=O)C1c1ccccc1 (stereo not drawn) | – | > 100 | > 100 | > 100 | > 100 | > 100 | > 100 | > 100 | > 100 | > 100 | 97.1 | – | > 100 | > 100 | – | – | – | –
C=C1C(=O)O[C@@H]2/C=C(C)/C=C\[C@@H]3O[C@@]3(C)C[C@@H](O)C12 (stereo partly drawn) | 21.1 | > 100 | 4.93 | 42.5 | 31.8 | 26.2 | 34.6 | 30.9 | 20.6 | 29.7 | 38.2 | – | 29.8 | 21.1 | > 100 | 39.6 | – | –
COC(=O)CC(C)(NS(=O)c1ccc(C)cc1)c1ccccc1 (stereo not drawn) | > 100 | > 100 | – | > 100 | > 100 | > 100 | > 100 | > 100 | > 100 | > 100 | > 100 | > 100 | > 100 | > 100 | > 100 | > 100 | – | –
C/C(CN1C(=O)c2ccccc2C1=O)=N\NS(=O)(=O)c1ccc(Cl)cc1 | > 100 | > 100 | > 100 | > 100 | > 100 | > 100 | > 100 | > 100 | > 100 | > 100 | > 100 | > 100 | > 100 | > 100 | – | – | – | –

Reference: PubChem BioAssay (NCI)
